# Measured values taken from the NIST ThermoML archive (doi:10.1016/j.jct.2018.12.025).
# Numbers after ± are expanded uncertainties.
# Experiment: relative permittivity at various frequencies (dimensionless)
# Details: 96.5 kPa, Liquid, Frequency=1 MHz, Parallel plate capacitor
smiles,measurement,setting,value
O [water],relative permittivity,298.15 K,79.68 ± 3
same,relative permittivity,308.15 K,75.51 ± 2.8
same,relative permittivity,318.15 K,71.42 ± 2.7
same,relative permittivity,328.15 K,68.44 ± 2.6
same,relative permittivity,338.15 K,64.51 ± 2.4
same,relative permittivity,348.15 K,60.78 ± 2.3
